From paper PMC7757987, “Antitumor Activity and Mechanism Study of Riluzole and Its Derivatives” (Iranian Journal of Pharmaceutical Research : IJPR, 2020)
Where two headings read alike, the source gives them in different places.

Assays:
[1] = CCK-8 cytotoxicity assay, normal LO2 cells; assay type: cell-based, human; details: human, LO2 normal liver cells; CCK-8, 48 h, normal liver cells; read-out: Cytotoxicity (IC50) L02
Method: (§1) HeLa (human cervical cancer cell line), HepG2 (human liver cancer cell line), SP2/0 (mouse myeloma cell line), and LO2 (human normal liver cell line) were cultured in DMEM medium. Each medium was supplemented with 10% fetal bovine serum, 1% L-glutamine and 1% penicillin/streptomycin solution. The cell lines were kept in the incubator at 37 ℃ in a humidified atmosphere (90% RH) containing 5% CO2. […] The cell lines SP2/0 and MCF-7 were obtained from Laboratory Center of Shaanxi Province People’s Hospital.
(§2) 2×10^3 cells per well were planted into 96-well plates in 100 μL growth medium and incubated for 24 h. […] The mixture was incubated at 37 ℃ under a humidified 5% CO2 atmosphere. After incubation, 10 μL CCK-8 solution was added to each well and the cells were further incubated for 2 h at 37 ℃ according to the CCK-8 Technical Manual. Then, the OD value for each well was read at wavelength 450 nm to determine the cell viability on a microplate reader (Synergy HT, USA). […] The independent experiment was repeated at least three times. The percentage of growth inhibition was calculated as follows according to reference ([18]),
(§3) % of growth inhibition = [1 - absorbance of treated cells/absorbance of untreated cells] × 100%

[2] = test system: SP2/0 (mouse myeloma cell line); assay: CCK-8 anti-proliferative assay, SP2/0; assay type: cell-based; details: for IC50: Mus musculus, CCK-8, 48 h, read-out: Cytotoxicity (IC50) SP2/0; for Selectivity index (SI) SP2/0: IC50 LO2 / IC50 SP2/0
Method: as §1, §2, §3

[3] = test system: HepG2 (human liver cancer cell line); assay: CCK-8 anti-proliferative assay, HepG2; assay type: cell-based; details: for IC50: Homo sapiens, HepG2, CCK-8, 48 h, read-out: Cytotoxicity (IC50) HepG2; for Selectivity index (SI) HepG2: IC50 LO2 / IC50 HepG2
Method: as §1, §2, §3

[4] = test system: MCF-7 (human breast cancer cell line); assay: CCK-8 anti-proliferative assay, MCF-7; assay type: cell-based; details: for IC50: Homo sapiens, MCF7, CCK-8, 48 h; for Selectivity index (SI) MCF-7: IC50 LO2 / IC50 MCF-7
Method: as §1, §2, §3

[5] = test system: HeLa (human cervical cancer cell line); assay: CCK-8 anti-proliferative assay, HeLa; assay type: cell-based; details: for IC50: Homo sapiens, HeLa, CCK-8, 48 h, read-out: Cytotoxicity (IC50) HeLa; for Selectivity index (SI) HeLa: IC50 LO2 / IC50 HeLa
Method: as §1, §2, §3

[6] = test system: HeLa, HepG2, SP2/0 and MCF-7; assay: CCK-8 anti-proliferative assay, all examined cancer cell lines; assay type: cell-based; details: HepG2, SP2/0, MCF-7, CCK-8, 48 h
Method: as §1, with “MCF-7 (breast cancer cell line) was cultured in RPMI-1640 medium. HeLa” for “HeLa”
2×10^3 cells per well were planted into 96-well plates in 100 μL growth medium and incubated for 24 h. Then, the cells were exposed to each compound in growth medium (DMSO< 0.5%) at five different concentrations (1.23, 3.70, 11.11, 33.33, and 100 μmol/L) for 48 h. The mixture was incubated at 37 ℃ under a humidified 5% CO2 atmosphere. After incubation, 10 μL CCK-8 solution was added to each well and the cells were further incubated for 2 h at 37 ℃ according to the CCK-8 Technical Manual. Then, the OD value for each well was read at wavelength 450 nm to determine the cell viability on a microplate reader (Synergy HT, USA). […] The independent experiment was repeated at least three times. The percentage of growth inhibition was calculated as follows according to reference ([18]),
as §3

[7] = read-out: Cytotoxicity (IC50) MCF-7

Row | Structure (SMILES) | IC50 at 48 h [1] [µM] | IC50 [2] [µM] | IC50 [3] [µM] | IC50 [4, 7] [µM] | IC50 [5] [µM] | IC50 [6] [µM] | melting point [°C] | Selectivity index (SI) SP2/0 [2] | Selectivity index (SI) HepG2 [3] | Selectivity index (SI) MCF-7 [4] | Selectivity index (SI) HeLa [5] | IC50 ([4]; read-out: IC50 in MCF-7 cells) [µM]
1 | CNC(=O)c1cc(Oc2ccc(NC(=O)Nc3ccc(Cl)c(C(F)(F)F)c3)cc2)ccn1 [Sorafenib, reference compound] | 11.9 ± 0.32 | 4.25 ± 0.75 | 12 ± 2.12 | 7.66 ± 0.73 | 5.16 ± 0.62 |  |  |  |  |  |  | 
2 | FC(F)(F)Oc1ccc2nc(N3CCOCC3)sc2c1 [Compound 4h, (N-morpholine)-6-trifluoromethoxy-benzothiazole] | > 100 | 98.7 ± 3.28 | > 100 | > 100 | > 100 | > 100 | 103 to 105 |  |  |  |  | 
3 | CCCNc1nc2ccc(OC(F)(F)F)cc2s1 [Compound 4b] | 32.2 ± 3.03 | 46.4 ± 3.62 | 18 ± 0.88 | 12.9 ± 0.69 | 30.1 ± 1.28 |  | 88 to 89 | 0.69 | 1.79 | 2.50 | 1.07 | 
4 | FC(F)(F)Oc1ccc2nc(N3CCCCC3)sc2c1 [Compound 4g, 2-(N-piperidine)-6-trifluoromethoxy-benzothiazole] | > 100 | 32.6 ± 1.44 | > 100 | 25.8 ± 1.21 | > 100 |  | 74 to 75 | 4.12 |  | 5.20 |  | 
5 | FC(F)(F)Oc1ccc2nc(NC3CCCCC3)sc2c1 [Compound 4e] | 33.8 ± 2.4 | 17.7 ± 0.81 | 20.2 ± 0.93 | 20.5 ± 1.09 | 20.9 ± 0.98 |  | 96 to 97 | 1.91 | 1.67 | 1.65 | 1.62 | 
6 | CCCCNc1nc2ccc(OC(F)(F)F)cc2s1 [Compound 4c] | 25.6 ± 3.12 | 59 ± 3.32 | > 100 | 21.9 ± 0.97 | 16.7 ± 0.94 |  | 76 to 78 | 0.43 |  | 1.17 | 1.53 | 
7 | CC1CCN(c2nc3ccc(OC(F)(F)F)cc3s2)CC1 [Compound 4i, 2-(N-4-methyl-1-piperidinyl)-6-trifluoromethoxy-benzothiazole] | > 100 | 11.5 ± 0.85 | > 100 | > 100 | > 100 |  | 77 to 78 | 9.68 |  |  |  | 11.5
8 | FC(F)(F)Oc1ccc2nc(N3CCCC3)sc2c1 [Compound 4f, (N-pyrrolidine)-6-trifluoromethoxy-benzothiazole] | 65.2 ± 3.53 | > 100 | > 100 | > 100 | > 100 | > 100 | 129 to 130 |  |  |  |  | 
9 | CCN(CC)c1nc2ccc(OC(F)(F)F)cc2s1 [Compound 4d, (N-diaethylamine)-6-trifluoromethoxy-benzothiazole] | > 100 | 48.5 ± 3.41 | > 100 | 46.6 ± 2.77 | > 100 |  | 38 to 39 |  |  |  |  | 
10 | FC(F)(F)Oc1ccc2nc(Cl)sc2c1 [Compound 3, 2-chloro-6-trifluoromethoxy-benzothiazole] | 100 ± 6.07 | > 100 | > 100 | > 100 | > 100 | > 100 | 38 to 39 |  |  |  |  | 
